Results as given in patent US10842806B2, “Methods for treating ocular inflammatory disorders” (Massachusetts Eye and Ear Infirmary, priority 2011, dated 2020).

Legend:
[1] = system: endotoxin-induced uveitis (EIU); assay: Cell count and total protein concentration in aqueous humor of EIU rats; format: in vivo, Lewis rats
Description: Male Lewis rats ranging from 6-8 weeks old (Charles River, Wilmington, Mass.) were used for these studies. To study the effects of AICAR pretreatment, AICAR and PBS (for placebo treatment) were delivered via intraperitoneal injection of AICAR (50 mg/kg or 100 mg/kg body weight; Sigma) diluted in 150 μl PBS or equal volume of PBS at 6 hours before and at the same time as LPS injection. Four experimental groups of rats were compared: (1) Normal: no treatment (2) AICAR: normal rats treated with AICAR 6 hours before examination; (3) LPS: EIU rats treated with PBS; (4) LPS+AICAR: EIU rats treated with AICAR. Two additional groups of rats were used to study the effects of AICAR (50 mg/kg) given either at the same time as LPS injection or at 6 hours after LPS injection. Aqueous humor was collected by anterior chamber puncture with a 30-gauge needle 24 hours after LPS injection. For cell counting, 1 μl of aqueous humor was diluted with an equal amount of Trypan-blue solution, and the cells were counted with a hematocytometer under a light microscope. A separate sample of aqueous humor was centrifuged at 2500 rpm for 5 minutes at 4° C. and the total protein concentration was measured by Lowry methods using a Bio-Rad protein assay kit (Hercules, Calif.). Aqueous samples were stored on ice until used; cell counts and total protein concentrations were measured on the day of sample collection.

TNF-α = TNF-α ELISA in aqueous humor, retina and serum of EIU rats; format: in vivo, Lewis rats; conditions: LPS + AICAR
Description: Male Lewis rats ranging from 6-8 weeks old (Charles River, Wilmington, Mass.) were used for these studies. To study the effects of AICAR pretreatment, AICAR and PBS (for placebo treatment) were delivered via intraperitoneal injection of AICAR (50 mg/kg or 100 mg/kg body weight; Sigma) diluted in 150 μl PBS or equal volume of PBS at 6 hours before and at the same time as LPS injection. Four experimental groups of rats were compared: (1) Normal: no treatment (2) AICAR: normal rats treated with AICAR 6 hours before examination; (3) LPS: EIU rats treated with PBS; (4) LPS+AICAR: EIU rats treated with AICAR. Two additional groups of rats were used to study the effects of AICAR (50 mg/kg) given either at the same time as LPS injection or at 6 hours after LPS injection. Under deep anesthesia, experimental rats were sacrificed and the retinas were carefully removed 24 hours after LPS injection, placed into 200 μl of lysis buffer and then sonicated. The lysate was centrifuged at 13,000 rpm for 10 minutes at 4° C. and supernatant was isolated. […] Cytokine and chemokine levels in the serum, aqueous humor, and retina were assessed using the rat CCL2/MCP-1 kit (Invitrogen, Camarillo, Calif.), the rat TNF-α kit (R&D system, Minneapolis, Minn.) and the rat ICAM-1 kit (R&D systems) by ELISA.

[2] = system: CD4+CD25+Foxp3+ Treg population; assay: Treg population in LN cells of EAU mice (flow cytometry); format: in vivo, C57BL/6 (WT) mice; conditions: control vs AICAR-treated mice; 21 days after immunization
Description: The effect of AICAR on the regulatory T (Treg) cell population in the EAU mice was also directly assessed. Specifically, LN cells from five mice were harvested at 21 days after immunization and stained with a mouse regulatory T cell staining kit #2 (eBioscience) according to manufacturer's instructions. CD4^+CD25^+Foxp3^+ Treg populations were subsequently detected by flow cytometry.

AMPKα1 KO BMDCs = assay: LPS-stimulated AMPKα1 KO BMDC maturation and cytokine production; format: cell-based, mice; conditions: after LPS stimulation with AICAR
Description: BMDCs were generated as previously described (Wang et al. (2005) IMMUNOL. LETT. 98:123-130). Briefly, bone marrow was flushed from the femurs and tibias of naive mice (6 to 8-week-old WT or AMPKα1 KO mice). The red blood cells were lysed using Red Blood Cell Lysing Buffer (Sigma). Approximately 2×10^6 cells were cultured in complete medium (RPMI 1640 medium containing 10% FBS, […], 10 mM HEPES [pH 7.4], 2 mM glutamine, 100 U/ml penicillin, and […]) including 10 ng/ml GM-CSF (Pepro Tech, London, England). Fresh media was added to the cells on day 4 of culture, and nonadherent cells and loosely adherent cells were collected as immature DCs on day 7. Immature DCs were stimulated with 100 ng/ml LPS (Salmonella typhimurium; Sigma) for 24 hours to obtain mature DCs. In some experiments, AICAR was added to the culture. […] After LPS stimulation for 24 hours, supernatant of the BMDC culture was collected and IL-6, TNF-α and IL12/23 p40 concentrations were measured (R&D system). […] In these experiments, AMPKα1 KO mice were provided as previously described (Jorgensen et al. (2004) J. BIOL. CHEM. 279:1070-1079). Since BMDCs expressed only AMPKα1, BMDCs were extracted from AMPK KO mouse and used to determine the role of AMPK in the anti-inflammatory effects of AICAR. As shown in FIGS. 14A and 14B, AICAR suppressed the maturation of AMPKα1 KO BMDCs.

[3] = system: experimental autoimmune uveitis (EAU); assay: Histological scoring of EAU (H&E sections); format: in vivo, C57BL/6 (WT) mice

NC(=O)c1ncn([C@@H]2O[C@H](CO)[C@@H](O)[C@H]2O)c1N [AICAR, 5-aminoimidazole-4-carboxamide-1-β-d-ribofuranoside]
Total protein concentration in aqueous humor ([1]; AICAR 50 mg/kg pretreatment, 24 h after LPS, LPS only 18.3): 7.9 mg/mL
Number of infiltrating cells in aqueous humor ([1]; AICAR 50 mg/kg pretreatment, 24 h after LPS, n=11, LPS only 22.0×10^5): 1.4×10^5 cells/ml
Cell infiltration and protein levels in aqueous humor of AICAR-only-treated rats ([1]; normal rats, AICAR only, n=6): did not show any significant infiltration of cells nor a significant increase in protein levels
TNF-α in serum (TNF-α; 3 hours after LPS, n=11, LPS 147.2 ± 337.1, p 0.475): 57.8 ± 143.1 pg/mL
TNF-α in aqueous humor (TNF-α; 24 h after LPS, n=12, LPS 277.8 ± 123.9): 92.5 ± 140.5 pg/mL
CD4+CD25+Foxp3+ Treg population [2]: not significantly different
CD40 expression in AMPKα1 KO BMDCs (AMPKα1 KO BMDCs): significantly suppressed
CD80 expression in AMPKα1 KO BMDCs (AMPKα1 KO BMDCs): significantly suppressed
CD86 expression in AMPKα1 KO BMDCs (AMPKα1 KO BMDCs): significantly suppressed
I-A^b expression in AMPKα1 KO BMDCs (AMPKα1 KO BMDCs): significantly suppressed
IL12/23 p40 production in AMPKα1 KO BMDCs (AMPKα1 KO BMDCs): suppressed
IL-6 production in AMPKα1 KO BMDCs (AMPKα1 KO BMDCs): suppressed
TNF-α production in AMPKα1 KO BMDCs (AMPKα1 KO BMDCs): suppressed
EAU mean pathologic score ([3]; AICAR 200 mg/kg i.p. daily day 0 to 21, day 21, scale 0-4, control 1.65±0.68): 0.53±0.73
EAU mean pathologic score, effector phase treatment ([3]; AICAR administered from day 8 to 21 after immunization, n=8, controls 1.03±0.75): 0.13±0.27
